Patent US7122558B2 (priority 2000, dated 2006)
Structures can show the parent of a compound that is named as a salt.

Molecular target: T1, human muscarinic receptors M3 (Homo sapiens, UniProt P20309)
T1 construct: expressed in transfected cells; host or cells: CHO-K1 (chinese hamster ovary-K1), stably transfected; membrane preparations
Assay: biochemical
Type: binding
Settings: for inhibition at 0.1 µM: read-out: % INHIBITION concentration: 1.00E−07 M; for inhibition at 0.01 µM: read-out: % INHIBITION concentration: 1.00E−08 M

T1 sequence (P20309 whole entry): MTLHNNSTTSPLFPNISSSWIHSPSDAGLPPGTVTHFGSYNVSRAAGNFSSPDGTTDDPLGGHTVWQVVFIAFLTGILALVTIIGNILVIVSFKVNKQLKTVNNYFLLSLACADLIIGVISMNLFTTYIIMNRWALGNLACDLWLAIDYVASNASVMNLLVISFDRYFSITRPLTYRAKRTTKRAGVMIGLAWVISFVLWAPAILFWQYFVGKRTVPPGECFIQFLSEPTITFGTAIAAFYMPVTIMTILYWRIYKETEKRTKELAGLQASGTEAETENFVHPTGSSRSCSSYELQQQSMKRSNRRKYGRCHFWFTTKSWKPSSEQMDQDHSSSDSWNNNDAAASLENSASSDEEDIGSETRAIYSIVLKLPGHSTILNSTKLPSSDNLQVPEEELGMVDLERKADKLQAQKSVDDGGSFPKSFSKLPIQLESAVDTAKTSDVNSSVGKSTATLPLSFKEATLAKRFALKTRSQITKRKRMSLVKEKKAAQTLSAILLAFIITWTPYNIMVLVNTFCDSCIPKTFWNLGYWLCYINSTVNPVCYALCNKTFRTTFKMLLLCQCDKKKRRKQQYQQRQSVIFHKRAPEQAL

SMILES | inhibition at 0.1 µM [%] | inhibition at 0.01 µM [%] | % INHIBITION concentration: 1.00E−08 M (0.01 µM) [%] | % INHIBITION concentration: 1.00E−07 M (0.1 µM) [%]
CN(CCC[N+]12CCC(CC1)[C@@H](OC(=O)[C@](O)(c1cccs1)C1CCCC1)C2)c1ccccc1 [Example 36, (3R)-3-[(2S)-2-Cyclopentyl-2-hydroxy-2-thien-2-ylacetoxy]-1-[3-(methylphenylamino)propyl]-1-azoniabicyclo[2.2.2]octane trifluoroacetate] | 84.2 | 42 | – | –
O=C(O[C@H]1C[N+]2(CCc3ccccc3)CCC1CC2)[C@@](O)(c1cccs1)C1CCCC1 [Example 56, (3R)-3-[(2R)-2-Cyclopentyl-2-hydroxy-2-thien-2-ylacetoxy]-1-phenethyl-1-azoniabicyclo[2.2.2]octane trifluoroacetate] | 77.3 | 53.8 | – | –
COc1ccc(OCCC[N+]23CCC(CC2)[C@@H](OC(=O)[C@](O)(c2cccs2)C2CCCC2)C3)cc1 [Example 44, (3R)-3-[(2S)-2-Cyclopentyl-2-hydroxy-2-thien-2-ylacetoxy]-1-[3-(4-methoxyphenoxy)propyl]-1-azoniabicyclo[2.2.2]octane trifluoroacetate] | 84.6 | 44.6 | – | –
O=C(O[C@H]1C[N+]2(CCCc3ccccc3)CCC1CC2)[C@](O)(c1ccco1)C1CCCCC1 [Example 81, (3R)-3-[(2R)-2-Cyclohexyl-2-fur-2-yl-2-hydroxyacetoxy]-1-(3-phenylpropyl)-1-azoniabicyclo[2.2.2]octane trifluoroacetate] | 70.1 | 45.4 | – | –
O=C(O[C@H]1C[N+]2(CCCc3cccs3)CCC1CC2)[C@@](O)(c1cccs1)C1CCCC1 [Example 54, (3R)-3-[(2R)-2-Cyclopentyl-2-hydroxy-2-thien-2-ylacetoxy]-1-(3-thien-2-ylpropyl)-1-azoniabicyclo[2.2.2]octane trifluoroacetate] | 72.5 | 44.1 | – | –
O=C(O[C@H]1C[N+]2(CCc3ccccc3)CCC1CC2)[C@](O)(c1ccccc1)C1CCCCC1 [Example 70, (3R)-3-[(2R)-2-Cyclohexyl-2-hydroxy-2-phenylacetoxy]-1-phenethyl-1-azoniabicyclo[2.2.2]octane trifluoroacetate] | 71.2 | 50 | – | –
C=CCC(O)(C(=O)O[C@H]1C[N+]2(CCCOc3ccccc3)CCC1CC2)c1cccs1 (stereo partly drawn) [Example 13, (3R)-3-(2-Hydroxy-2-thien-2-ylpent-4-enoyloxy)-1-(3-phenoxypropyl)-1-azoniabicyclo[2.2.2]octane bromide] | 76 | 36 | – | –
O=C(O[C@H]1C[N+]2(CCCc3cccs3)CCC1CC2)[C@](O)(c1ccccc1)C1CCCCC1 [Example 69, (3R)-3-[(2R)-2-Cyclohexyl-2-hydroxy-2-phenylacetoxy]-1-(3-thien-2-ylpropyl)-1-azoniabicyclo[2.2.2]octane trifluoroacetate] | 70.8 | 43.9 | – | –
O=C(CCC[N+]12CCC(CC1)[C@@H](OC(=O)[C@](O)(c1cccs1)C1CCCC1)C2)c1ccccc1 [Example 38, (3R)-3-[(2S)-2-Cyclopentyl-2-hydroxy-2-thien-2-ylacetoxy]-1-(4-oxo-4-phenylbutyl)-1-azoniabicyclo[2.2.2]octane trifluoroacetate] | 86.3 | 57.7 | – | –
O=C(O[C@H]1C[N+]2(CCc3ccccc3)CCC1CC2)[C@](O)(c1ccccc1)C1CCCC1 [Example 83, (3R)-3-[(2R)-2-Cyclopentyl-2-hydroxy-2-phenylacetoxy]-1-phenethyl-1-azoniabicyclo[2.2.2]octane trifluoroacetate] | 72.7 | 60.3 | – | –
O=C(O[C@H]1C[N+]2(CCCSc3ccccc3)CCC1CC2)[C@](O)(c1ccccc1)C1CCCC1 [Example 84, (3R)-3-[(2R)-2-Cyclopentyl-2-hydroxy-2-phenylacetoxy]-1-(3-phenylsulfanylpropyl)-1-azoniabicyclo[2.2.2]octane trifluoroacetate] | 68.3 | 41 | – | –
O=C(O[C@H]1C[N+]2(CCCOc3cccc(O)c3)CCC1CC2)[C@](O)(c1cccs1)C1CCCC1 [Example 31, (3R)-3-[(2S)-2-Cyclopentyl-2-hydroxy-2-thien-2-ylacetoxy]-1-[3-(3-hydroxyphenoxy)propyl]-1-azoniabicyclo[2.2.2]octane trifluoroacetate] | 74.3 | 54.3 | – | –
O=C(O[C@H]1C[N+]2(CCc3ccccc3)CCC1CC2)[C@](O)(c1cccs1)C1CCCCC1 [Example 89, (3R)-3-[(2S)-2-Cyclohexyl-2-hydroxy-2-thien-2-ylacetoxy]-1-phenethyl-1-azoniabicyclo[2.2.2]octane trifluoroacetate] | 68.5 | 51.3 | – | –
Cc1ccccc1OCCC[N+]12CCC(CC1)[C@@H](OC(=O)[C@](O)(c1cccs1)C1CCCC1)C2 [Example 33, (3R)-3-[(2S)-2-Cyclopentyl-2-hydroxy-2-thien-2-ylacetoxy]-1-(3-o-tolyloxypropyl)1-azoniabicyclo[2.2.2]octane trifluoroacetate] | 72.8 | 46.7 | – | –
O=C(O[C@H]1C[N+]2(CCCOc3ccccc3Cl)CCC1CC2)[C@](O)(c1cccs1)C1CCCC1 [Example 40, 1-[3-(2-Chlorophenoxy)-propyl]-(3R)-3-[(2S)-2-cyclopentyl-2-hydroxy-2-thien-2-ylacetoxy]-1-azoniabicyclo[2.2.2]octane trifluoroacetate] | 86.9 | 72.7 | – | –
N#Cc1cccc(OCCC[N+]23CCC(CC2)[C@@H](OC(=O)[C@](O)(c2cccs2)C2CCCC2)C3)c1 [Example 34, 1-[3-(3-Cyanophenoxy)propyl]-(3R)-3-[(2S)-2-cyclopentyl-2-hydroxy-2-thien-2-ylacetoxy]-1-azoniabicyclo[2.2.2]octane trifluoroacetate] | 85.3 | 68.3 | – | –
O=C(O[C@H]1C[N+]2(CCCc3ccccc3)CCC1CC2)[C@](O)(c1ccco1)C1CCCC1 [Example 67, (3R)-3-[(2R)-2-Cyclopentyl-2-fur-2-yl-2-hydroxyacetoxy]-1-(3-phenylpropyl)-1-azoniabicyclo[2.2.2]octane trifluoroacetate] | 75.1 | 52.5 | – | –
O=C(O[C@H]1C[N+]2(CCCc3cccs3)CCC1CC2)[C@](O)(c1cccs1)C1CCCC1 [Example 23, (3R)-3-[(2S)-2-Cyclopentyl-2-hydroxy-2-thien-2-yl-acetoxy]-1-(3-thien-2-ylpropyl)-1-azoniabicyclo[2.2.2]octane trifluoroacetate] | 75.6 | 63.3 | – | –
O=C(O[C@H]1C[N+]2(CCCc3cccs3)CCC1CC2)[C@@](O)(c1ccco1)C1CCCC1 [Example 61, (3R)-3-[(2S)-2-Cyclopentyl-2-fur-2-yl-2-hydroxyacetoxy]-1-(3-thien-2-ylpropyl)-1-azoniabicyclo[2.2.2]octane trifluoroacetate] | 75.1 | 39.9 | – | –
O=C(O[C@H]1C[N+]2(CCCc3ccccc3)CCC1CC2)[C@](O)(c1cccs1)C1CCCC1 [Example 26, (3R)-3-[(2S)-2-Cyclopentyl-2-hydroxy-2-thien-2-ylacetoxy]-1-(3-phenylpropyl)-1-azoniabicyclo[2.2.2]octane trifluoroacetate] | 75.6 | 63.8 | – | –
O=C(O[C@H]1C[N+]2(CCCOc3ccc4c(c3)OCO4)CCC1CC2)[C@](O)(c1cccs1)C1CCCC1 [Example 46, 1-[3-(Benzo[1,3]dioxol-5-yloxy)propyl]-(3R)-3-[(2S)-2-cyclopentyl-2-hydroxy-2-thien-2-ylacetoxy]-1-azoniabicyclo[2.2.2]octane trifluoroacetate] | 87.1 | 57.6 | – | –
O=C(O[C@H]1C[N+]2(CCCOc3ccccc3)CCC1CC2)[C@@](O)(c1cccs1)C1CCCC1 [Example 53, (3R)-3-[(2R)-2-cyclopentyl-2-hydroxy-2-thien-2-ylacetoxy]-1-(3-phenoxypropyl)-1-azoniabicyclo[2.2.2]octane bromide] | 81.5 | 58 | – | –
O=C(O[C@H]1C[N+]2(CCCc3ccccc3)CCC1CC2)[C@@](O)(c1cccs1)C1CCCC1 [Example 57, (3R)-3-[(2R)-2-Cyclopentyl-2-hydroxy-2-thien-2-ylacetoxy]-1-(3-phenylpropyl)-1-azoniabicyclo[2.2.2]octane trifluoroacetate] | 77.4 | 47.1 | – | –
CCCCCC(O)(C(=O)O[C@H]1C[N+]2(CCCOc3ccccc3)CCC1CC2)c1cccs1 (stereo partly drawn) [Example 16, (3R)-3-(2-Hydroxy-2-thien-2-ylheptanoyloxy)-1-(3-phenoxypropyl)-1-azoniabicyclo[2.2.2]octane trifluoroacetate] | 74.2 | 36.3 | – | –
O=C(O[C@H]1C[N+]2(CCCc3cccs3)CCC1CC2)[C@](O)(c1ccco1)C1CCCC1.O=C([O-])C(F)(F)F [Example 65, (3R)-3-[(2R)-2-Cyclopentyl-2-fur-2-yl-2-hygroxyacetoxy]-1-(3-thien-2-ylpropyl)-1-azoniabicyclo[2.2.2]octane trifluoroacetate] | – | – | 66.0 | 79.8
O=C(O[C@H]1C[N+]2(CCc3ccccc3)CCC1CC2)[C@@](O)(c1ccccc1)C1CCCC1 [Example 86, (3R)-3-[(2S)-2-Cyclopentyl-2-hydroxy-2-phenylacetoxy]-1-phenethyl-1-azoniabicyclo[2.2.2]octane trifluoroacetate] | 68.2 | 37.2 | – | –
O=C(O[C@H]1C[N+]2(CCCOc3ccccc3)CCC1CC2)[C@](O)(c1ccccc1)C1CCCC1 [Example 82, (3R)-3-[(2R)-2-Cyclopentyl-2-hydroxy-2-phenylacetoxy]-1-(3-phenoxypropyl)-1-azoniabicyclo[2.2.2]octane trifluoroacetate] | 70.6 | 55.3 | – | –
